Results from PubChem BioAssay (NCI).
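Assay format: 96-well plates, 48-hour exposure. TGI is the concentration that stops growth completely.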

Columns and labels:
Test in all cases: NCI tumour cell line growth inhibition, 48 h
SW-620 colon = tested on: SW-620 colon
NCI-H23 lung = tested on: NCI-H23 lung
PC-3 prostate = tested on: PC-3 prostate
IGROV1 ovarian = tested on: IGROV1 ovarian
U251 CNS = tested on: U251 CNS
M14 melanoma = tested on: M14 melanoma
OVCAR-5 ovarian = tested on: OVCAR-5 ovarian
MDA-MB-435 = tested on: MDA-MB-435
COLO 205 colon = tested on: COLO 205 colon
ACHN renal = tested on: ACHN renal
UO-31 renal = tested on: UO-31 renal
CAKI-1 renal = tested on: CAKI-1 renal
SN12C renal = tested on: SN12C renal
OVCAR-8 ovarian = tested on: OVCAR-8 ovarian
SK-MEL-5 melanoma = tested on: SK-MEL-5 melanoma
SF-268 CNS = tested on: SF-268 CNS
SF-539 CNS = tested on: SF-539 CNS
MDA-N = tested on: MDA-N
CCRF-CEM leukemia = tested on: CCRF-CEM leukemia
NCI-H522 lung = tested on: NCI-H522 lung
SK-MEL-28 melanoma = tested on: SK-MEL-28 melanoma
UACC-62 melanoma = tested on: UACC-62 melanoma
HCT-116 colon = tested on: HCT-116 colon
OVCAR-3 ovarian = tested on: OVCAR-3 ovarian
HL-60(TB) leukemia = tested on: HL-60(TB) leukemia
RPMI-8226 leukemia = tested on: RPMI-8226 leukemia
NCI-H226 lung = tested on: NCI-H226 lung
HT29 colon = tested on: HT29 colon
HOP-62 NSCLC = tested on: HOP-62 NSCLC
UACC-257 melanoma = tested on: UACC-257 melanoma
MCF7 breast = tested on: MCF7 breast
SNB-19 CNS = tested on: SNB-19 CNS
SF-295 CNS = tested on: SF-295 CNS
SNB-75 CNS = tested on: SNB-75 CNS
LOX IMVI melanoma = tested on: LOX IMVI melanoma
T-47D breast = tested on: T-47D breast
MDA-MB-231 breast = tested on: MDA-MB-231 breast
NCI/ADR-RES ovarian = tested on: NCI/ADR-RES ovarian
DU-145 prostate = tested on: DU-145 prostate
A549 NSCLC = tested on: A549 NSCLC
SK-OV-3 ovarian = tested on: SK-OV-3 ovarian
EKVX NSCLC = tested on: EKVX NSCLC
HS 578T breast = tested on: HS 578T breast
MOLT-4 leukemia = tested on: MOLT-4 leukemia
HCT-15 colon = tested on: HCT-15 colon
HCC-2998 colon = tested on: HCC-2998 colon
K-562 leukemia = tested on: K-562 leukemia
KM12 colon = tested on: KM12 colon
NCI-H460 lung = tested on: NCI-H460 lung
MALME-3M melanoma = tested on: MALME-3M melanoma
TK-10 renal = tested on: TK-10 renal
SR leukemia = tested on: SR leukemia
SK-MEL-2 melanoma = tested on: SK-MEL-2 melanoma
786-0 renal = tested on: 786-0 renal
BT-549 breast = tested on: BT-549 breast
A498 renal = tested on: A498 renal
HOP-92 NSCLC = tested on: HOP-92 NSCLC
OVCAR-4 ovarian = tested on: OVCAR-4 ovarian
RXF 393 renal = tested on: RXF 393 renal

N#Cc1cc2c(cc1C#N)/C(=N\c1cccc(N)n1)N=C2Nc1cccc(N)n1 was tested, and the TGI (SW-620 colon) was 60.1 µM, the TGI (NCI-H23 lung) was 40.1 µM and the TGI (PC-3 prostate) was greater than 100 µM. For the same compound, the TGI (IGROV1 ovarian) was greater than 100 µM, the TGI (U251 CNS) was greater than 100 µM and the TGI (M14 melanoma) was 34.1 µM. The TGI (OVCAR-5 ovarian) was greater than 100 µM, the TGI (MDA-MB-435) was 59.7 µM and the TGI (COLO 205 colon) was 51.9 µM. The TGI (ACHN renal) was 57.3 µM, the TGI (UO-31 renal) was 47 µM and the TGI (CAKI-1 renal) was 34.1 µM. For the same compound, the TGI (SN12C renal) was greater than 100 µM, the TGI (OVCAR-8 ovarian) was greater than 100 µM and the TGI (SK-MEL-5 melanoma) was 22.1 µM. For the same compound, the TGI (SF-268 CNS) was 49.2 µM, the TGI (SF-539 CNS) was 43.2 µM and the TGI (MDA-N) was 59.6 µM. The TGI (CCRF-CEM leukemia) was greater than 100 µM, the TGI (NCI-H522 lung) was 22.6 µM and the TGI (SK-MEL-28 melanoma) was 48.7 µM. It also gave a TGI (UACC-62 melanoma) of 41 µM, a TGI (HCT-116 colon) of 26.7 µM and a TGI (OVCAR-3 ovarian) greater than 100 µM. It also gave a TGI (HL-60(TB) leukemia) greater than 100 µM, a TGI (RPMI-8226 leukemia) greater than 100 µM and a TGI (NCI-H226 lung) greater than 100 µM. It also gave a TGI (HT29 colon) of 85.7 µM, a TGI (HOP-62 NSCLC) of 70.2 µM and a TGI (UACC-257 melanoma) greater than 100 µM. For the same compound, the TGI (MCF7 breast) was greater than 100 µM, the TGI (SNB-19 CNS) was greater than 100 µM and the TGI (SF-295 CNS) was greater than 100 µM. For the same compound, the TGI (SNB-75 CNS) was 76.1 µM, the TGI (LOX IMVI melanoma) was greater than 100 µM and the TGI (T-47D breast) was greater than 100 µM. The TGI (MDA-MB-231 breast) was 40.9 µM, the TGI (NCI/ADR-RES ovarian) was greater than 100 µM and the TGI (DU-145 prostate) was greater than 100 µM. The TGI (A549 NSCLC) was greater than 100 µM, the TGI (SK-OV-3 ovarian) was 42.4 µM and the TGI (EKVX NSCLC) was greater than 100 µM. For the same compound, the TGI (HS 578T breast) was greater than 100 µM, the TGI (MOLT-4 leukemia) was greater than 100 µM and the TGI (HCT-15 colon) was 76.5 µM. It also gave a TGI (HCC-2998 colon) of 57.5 µM, a TGI (K-562 leukemia) greater than 100 µM and a TGI (KM12 colon) greater than 100 µM. For the same compound, the TGI (NCI-H460 lung) was greater than 100 µM, the TGI (MALME-3M melanoma) was 84.1 µM and the TGI (TK-10 renal) was 68.8 µM. It also gave a TGI (SR leukemia) greater than 100 µM, a TGI (SK-MEL-2 melanoma) greater than 100 µM and a TGI (786-0 renal) of 30.6 µM. It also gave a TGI (BT-549 breast) of 84.3 µM.
Compound Cc1c2n(c3ccccc13)S(=O)(=O)c1ccccc1-2 has a TGI (SW-620 colon) greater than 100 µM, a TGI (NCI-H23 lung) greater than 100 µM and a TGI (PC-3 prostate) of 61.3 µM. It also gave a TGI (IGROV1 ovarian) greater than 100 µM, a TGI (U251 CNS) of 37.9 µM and a TGI (M14 melanoma) greater than 100 µM. The TGI (OVCAR-5 ovarian) was greater than 100 µM, the TGI (MDA-MB-435) was greater than 100 µM and the TGI (COLO 205 colon) was greater than 100 µM. It also gave a TGI (ACHN renal) of 43 µM, a TGI (UO-31 renal) of 41.6 µM and a TGI (CAKI-1 renal) of 27.4 µM. For the same compound, the TGI (A498 renal) was 27.4 µM, the TGI (OVCAR-8 ovarian) was 60.1 µM and the TGI (SK-MEL-5 melanoma) was greater than 100 µM. The TGI (MDA-N) was greater than 100 µM, the TGI (CCRF-CEM leukemia) was greater than 100 µM and the TGI (NCI-H522 lung) was greater than 100 µM. The TGI (SK-MEL-28 melanoma) was greater than 100 µM, the TGI (UACC-62 melanoma) was greater than 100 µM and the TGI (HCT-116 colon) was greater than 100 µM. It also gave a TGI (OVCAR-3 ovarian) greater than 100 µM, a TGI (HL-60(TB) leukemia) greater than 100 µM and a TGI (RPMI-8226 leukemia) greater than 100 µM. The TGI (NCI-H226 lung) was greater than 100 µM, the TGI (HT29 colon) was 35.6 µM and the TGI (UACC-257 melanoma) was greater than 100 µM. For the same compound, the TGI (MCF7 breast) was greater than 100 µM, the TGI (SNB-19 CNS) was 46.9 µM and the TGI (SF-295 CNS) was 53.2 µM. The TGI (LOX IMVI melanoma) was greater than 100 µM, the TGI (MDA-MB-231 breast) was 39.4 µM and the TGI (NCI/ADR-RES ovarian) was greater than 100 µM. For the same compound, the TGI (DU-145 prostate) was greater than 100 µM, the TGI (HOP-92 NSCLC) was 73.6 µM and the TGI (A549 NSCLC) was greater than 100 µM. For the same compound, the TGI (OVCAR-4 ovarian) was greater than 100 µM, the TGI (SK-OV-3 ovarian) was 31.6 µM and the TGI (EKVX NSCLC) was 35.6 µM. It also gave a TGI (HS 578T breast) of 54.8 µM, a TGI (MOLT-4 leukemia) greater than 100 µM and a TGI (HCT-15 colon) greater than 100 µM. It also gave a TGI (HCC-2998 colon) greater than 100 µM, a TGI (K-562 leukemia) greater than 100 µM and a TGI (KM12 colon) greater than 100 µM. It also gave a TGI (NCI-H460 lung) greater than 100 µM, a TGI (MALME-3M melanoma) greater than 100 µM and a TGI (TK-10 renal) of 58.2 µM. The TGI (SR leukemia) was greater than 100 µM, the TGI (786-0 renal) was 22.7 µM and the TGI (BT-549 breast) was greater than 100 µM.
In the case of c1csc(-c2nccc3c2[nH]c2ccccc23)c1, the TGI (SW-620 colon) is reported as 46.3 µM, the TGI (NCI-H23 lung) is reported as 38.2 µM and the TGI (PC-3 prostate) is reported as 61.3 µM. The TGI (RXF 393 renal) was 36.1 µM, the TGI (IGROV1 ovarian) was 37.4 µM and the TGI (U251 CNS) was 75.9 µM. For the same compound, the TGI (M14 melanoma) was 31.6 µM, the TGI (OVCAR-5 ovarian) was 85.5 µM and the TGI (MDA-MB-435) was 32.2 µM. For the same compound, the TGI (COLO 205 colon) was 28.9 µM, the TGI (ACHN renal) was 73.7 µM and the TGI (CAKI-1 renal) was 71.5 µM. The TGI (SN12C renal) was 38.8 µM, the TGI (A498 renal) was 33.9 µM and the TGI (OVCAR-8 ovarian) was 42.8 µM. The TGI (SK-MEL-5 melanoma) was 31.4 µM, the TGI (SF-268 CNS) was 56.7 µM and the TGI (SF-539 CNS) was 32 µM. The TGI (MDA-N) was 35.4 µM, the TGI (CCRF-CEM leukemia) was 51.5 µM and the TGI (NCI-H522 lung) was 41.5 µM. For the same compound, the TGI (SK-MEL-28 melanoma) was 43 µM, the TGI (UACC-62 melanoma) was 62.4 µM and the TGI (HCT-116 colon) was 31.8 µM. For the same compound, the TGI (OVCAR-3 ovarian) was 49.4 µM, the TGI (HL-60(TB) leukemia) was 55.9 µM and the TGI (NCI-H226 lung) was 32 µM. It also gave a TGI (HT29 colon) of 29.3 µM, a TGI (HOP-62 NSCLC) of 39.2 µM and a TGI (UACC-257 melanoma) of 35.7 µM. The TGI (MCF7 breast) was 20.8 µM, the TGI (SNB-19 CNS) was greater than 100 µM and the TGI (SF-295 CNS) was 34.9 µM. It also gave a TGI (SNB-75 CNS) of 42.8 µM, a TGI (LOX IMVI melanoma) of 39.7 µM and a TGI (T-47D breast) of 63.2 µM. For the same compound, the TGI (MDA-MB-231 breast) was 48.1 µM, the TGI (NCI/ADR-RES ovarian) was 54.8 µM and the TGI (DU-145 prostate) was 63.9 µM. For the same compound, the TGI (HOP-92 NSCLC) was 41.5 µM, the TGI (A549 NSCLC) was 49.2 µM and the TGI (OVCAR-4 ovarian) was 55.1 µM. The TGI (SK-OV-3 ovarian) was 41.5 µM, the TGI (EKVX NSCLC) was 84.9 µM and the TGI (HS 578T breast) was greater than 100 µM. For the same compound, the TGI (MOLT-4 leukemia) was 51.5 µM, the TGI (HCT-15 colon) was 48.1 µM and the TGI (HCC-2998 colon) was 39.6 µM. For the same compound, the TGI (K-562 leukemia) was 63.8 µM, the TGI (KM12 colon) was 34.4 µM and the TGI (NCI-H460 lung) was 57 µM. The TGI (MALME-3M melanoma) was 47.2 µM, the TGI (TK-10 renal) was 48.7 µM and the TGI (SR leukemia) was 48 µM. It also gave a TGI (SK-MEL-2 melanoma) of 41.8 µM and a TGI (786-0 renal) of 32.9 µM.
